The values below come from patent publication US20230270881A1, “ONCOGENIC TRIM37 IS A TARGETABLE EPIGENETIC DRIVER OF METASTASIS AND LINKS CHEMORESISTANCE AND METASTATIC FATE IN TRIPLE-NEGATIVE BREAST CANCER” (University of Virginia Patent Foundation, priority 2020, published 2023).

Sequences and labels used below:
B1: tripartite motif-containing protein 37 (TRIM37) (enzyme)
chain: MDEQSVESIAEVFRCFICMEKLRDARLCPHCSKLCCFSCIRRWLTEQRAQCPHCRAPLQLRELVNCRWAEEVTQQLDTLQLCSLTKHEENEKDKCENHHEKLSVFCWTCKKCICHQCALWGGMHGGHTFKPLAEIYEQHVTKVNEEVAKLRRRLMELISLVQEVERNVEAVRNAKDERVREIRNAVEMMIARLDTQLKNKLITLMGQKTSLTQETELLESLLQEVEHQLRSCSKSELISKSSEILMMFQQVHRKPMASFVTTPVPPDFTSELVPSYDSATFVLENFSTLRQRADPVYSPPLQVSGLCWRLKVYPDGNGVVRGYYLSVFLELSAGLPETSKYEYRVEMVHQSCNDPTKNIIREFASDFEVGECWGYNRFFRLDLLANEGYLNPQNDTVILRFQVRSPTFFQKSRDQHWYITQLEAAQTSYIQQINNLKERLTIELSRTQKSRDLSPPDNHLSPQNDDALETRAKKSACSDMLLEGGPTTASVREAKEDEEDEEKIQNEDYHHELSDGDLDLDLVYEDEVNQLDGSSSSASSTATSNTEENDIDEETMSGENDVEYNNMELEEGELMEDAAAAGPAGSSHGYVGSSSRISRRTHLCSAATSSLLDIDPLILIHLLDLKDRSSIENLWGLQPRPPASLLQPTASYSRKDKDQRKQQAMWRVPSDLKMLKRLKTQMAEVRCMKTDVKNTLSEIKSSSAASGDMQTSLFSADQAALAACGTENSGRLQDLGMELLAKSSVANCYIRNSTNKKSNSPKPARSSVAGSLSLRRAVDPGENSRSKGDCQTLSEGSPGSSQSGSRHSSPRALIHGSIGDILPKTEDRQCKALDSDAVVVAVFSGLPAVEKRRKMVTLGANAKGGHLEGLQMTDLENNSETGELQPVLPEGASAAPEEGMSSDSDIECDTENEEQEEHTSVGGFHDSFMVMTQPPDEDTHSSFPDGEQIGPEDLSFNTDENSGR
notes: Endogenous TRIM37 in extracts of human TNBC cell lines (MDA MB 468 nuclear extract for co-immunoprecipitation, HCC1806 whole cell extract for sucrose gradient)

One experiment deals with MDA-MB-468 cells. Description: Chemical inhibitor treatment with Dox, qRT-PCR of TRIM37. In kind it is cell-based, human. Particulars: in combination with Dox. The procedure:
Quantitative RT-PCR (qRT-PCR). Total RNA was isolated and reverse transcribed using Superscript II Reverse Transcriptase (Invitrogen). Gene expression was normalized to Gapdh. Controls lacking reverse transcriptase were carried out in parallel to rule out the possibility of DNA contamination. Each sample was analyzed at least two independent times and the results from at least three different biological triplicates are presented.
(§1) Chemical inhibitor treatment. MDA-MB-468 cells were treated for 24 hrs with 10 µM Dox and small molecule inhibitors at the following concentrations: 10 µM KU000553 (Cayman Chemical), 50 µM AG490 (Cayman Chemical), and 40 µM HLM006474 (Sigma-Aldrich) for 24 hrs.
Background: Quantitative PCR measures a nucleic acid by following its amplification.

The subject of experiment [1] is TRIM37. Kind of experiment: Directed-ChIP assays. Particulars: MDA MB 468 cells, in combination with Dox. In kind it is cell-based, human. The procedure: Directed-ChIP assays. ChIP assays were performed as described previously (Bhatnagar et al., 2014) using cell extracts prepared 1 day after Cas9 transduction or inhibitor treatment, and antibodies against BMI1 (Abcam), H2Aub (Cell Signaling Technology), TRIM37 (Abcam), STAT1 (Cell Signaling Technology), STAT3 (Cell Signaling Technology), E2F1 (Cell Signaling Technology), and as a negative control, IgG. Each ChIP experiment was carried out at least three independent times and the results from at least three biological experiments, with technical duplicates, are shown.
as §1

The subject of experiment [2] is TRIM37. Kind of experiment: Immunoblotting of TRIM37 in treated cells. The note with it: TNBC cells. In kind it is cell-based, human. The procedure:
Immunoblotting. Cell extracts were prepared by lysing cell pellet in RIPA buffer supplemented with 1 mM sodium ortho-vanadate and 10 mM PMSF. To prepare protein extract from mouse tissue, it was homogenized in lysis buffer (1% SDS, 1 mM sodium ortho-vanadate, 10 mM Tris pH 7.4 and protease inhibitor). Immunoblots were probed using antibodies against TRIM37 (Abcam), PARP (Cell Signaling Technology), p21 (Cell Signaling Technology), γ-ph-H2AX (Cell Signaling Technology), RAD51C (Invitrogen), ph-ATM (Cell Signaling Technology), ph-STAT1 (Cell Signaling Technology), ph-STAT3 (Cell Signaling Technology), ph-STAT5 (Cell Signaling Technology), BIM (Abcam), FOLR1 (R&D) and α-tubulin (Invitrogen).
On the technique in general: In western blotting, separated proteins are transferred to a membrane and probed.

A further experiment concerns the target T1, RAD50 (human, UniProt Q92878 1-1312).
T1 construct: Only co-sedimentation with TRIM37 is reported
T1 sequence (looked up): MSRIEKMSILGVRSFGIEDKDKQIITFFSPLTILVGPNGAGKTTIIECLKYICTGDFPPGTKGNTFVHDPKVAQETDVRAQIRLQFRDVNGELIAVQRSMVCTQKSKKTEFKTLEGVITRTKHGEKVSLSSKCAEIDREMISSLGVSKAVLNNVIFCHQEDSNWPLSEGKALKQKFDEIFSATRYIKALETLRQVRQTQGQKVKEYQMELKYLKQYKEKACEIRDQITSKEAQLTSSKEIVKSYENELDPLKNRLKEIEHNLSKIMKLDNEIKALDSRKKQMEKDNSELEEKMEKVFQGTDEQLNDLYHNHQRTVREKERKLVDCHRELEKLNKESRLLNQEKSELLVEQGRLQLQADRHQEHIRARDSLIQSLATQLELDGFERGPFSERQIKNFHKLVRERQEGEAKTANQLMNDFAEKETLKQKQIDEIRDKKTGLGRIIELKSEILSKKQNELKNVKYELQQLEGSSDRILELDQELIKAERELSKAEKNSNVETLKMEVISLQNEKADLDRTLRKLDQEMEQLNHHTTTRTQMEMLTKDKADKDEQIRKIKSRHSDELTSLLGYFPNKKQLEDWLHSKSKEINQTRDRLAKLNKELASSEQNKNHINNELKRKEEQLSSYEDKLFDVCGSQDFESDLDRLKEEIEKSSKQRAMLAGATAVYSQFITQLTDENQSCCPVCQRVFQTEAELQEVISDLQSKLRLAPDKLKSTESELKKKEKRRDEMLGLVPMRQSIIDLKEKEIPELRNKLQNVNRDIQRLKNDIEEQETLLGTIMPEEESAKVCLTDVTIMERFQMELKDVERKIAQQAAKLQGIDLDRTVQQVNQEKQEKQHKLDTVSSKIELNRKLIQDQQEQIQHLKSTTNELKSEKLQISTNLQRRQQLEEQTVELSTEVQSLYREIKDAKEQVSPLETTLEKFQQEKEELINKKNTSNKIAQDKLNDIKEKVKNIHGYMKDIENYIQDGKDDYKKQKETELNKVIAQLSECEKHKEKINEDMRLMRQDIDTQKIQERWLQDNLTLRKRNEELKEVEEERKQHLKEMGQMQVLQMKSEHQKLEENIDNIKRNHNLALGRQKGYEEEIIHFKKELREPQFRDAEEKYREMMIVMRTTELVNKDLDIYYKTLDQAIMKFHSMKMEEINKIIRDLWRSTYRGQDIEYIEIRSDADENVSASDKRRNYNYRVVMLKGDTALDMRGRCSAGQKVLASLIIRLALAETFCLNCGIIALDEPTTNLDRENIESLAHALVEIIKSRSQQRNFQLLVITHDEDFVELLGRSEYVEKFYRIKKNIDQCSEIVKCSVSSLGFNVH
Description: sucrose gradient sedimentation of HCC1806 whole cell extract, immunoblot of fractions. How it is done: (§2) Sucrose gradient fractionation. Sucrose gradient sedimentation analysis was performed as described previously (Bhatnagar et al., 2014). Briefly, 10-40% gradients were formed by layering 200 µl NEB1 buffer containing 10%, 20%, 30% or 40% sucrose in a 13 x 51 mm centrifuge tube (Beckman) and allowed to equilibrate at room temperature for 2 hrs. Gradients were chilled, loaded with […] HCC1806 extract (adjusted to a volume of 200 µl) or 200 µl molecular weight markers (Sigma MW-GF-1000), and centrifuged in a Beckman SW 55 Ti rotor at 214,000 g for 14 hrs. Twenty-five fractions of 200 µl were collected. For the markers, 20 µl of each fraction was electrophoresed and Coomassie stained.

Experiment [3] deals with B1. Described as above. How it is done:
as §2

As to `N#C/C(=C/c1ccc(O)c(O)c1)C(=O)NCc1ccccc1` [AG490], the “TRIM37 upregulation following Dox-treatment (qRT-PCR)” value in the experiment with MDA-MB-468 cells is recorded as “blocks TRIM37 upregulation”. In addition, in the experiment on TRIM37 [1], the “Dox-induced STAT1, STAT3, and E2F1 recruitment to TRIM37 (ChIP)” value is reported as “substantially decreased”. On to `O=c1cc(-c2cccc3c2Sc2ccccc2S3)oc(N2CCOCC2)c1` [KU000553], for which, in the experiment on MDA-MB-468 cells, the “TRIM37 upregulation following Dox-treatment (qRT-PCR)” value is on record as “blocks TRIM37 upregulation”. For the molecule `CCOc1ccc(C(Nc2ccccn2)c2ccc3ccc(C)nc3c2O)cc1C` (stereo not drawn) [HLM006474], the “TRIM37 upregulation following Dox-treatment (qRT-PCR)” value in the experiment on MDA-MB-468 cells is listed as “blocks TRIM37 upregulation”. In the experiment with TRIM37 [1], the “Dox-induced STAT1, STAT3, and E2F1 recruitment to TRIM37 (ChIP)” value is “substantially decreased”. `N.N.[Cl][Pt][Cl]` [cisplatin]: the “TRIM37 expression post-treatment relative to DMSO” value in the experiment with TRIM37 [2] is “increased TRIM37 expression”. Still for that read-out and setting: with `COc1cccc2c1C(=O)c1c(O)c3c(c(O)c1C2=O)C[C@@](O)(C(C)=O)C[C@@H]3O[C@H]1C[C@H](N)[C@H](O)[C@H](C)O1` [daunorubicin] the entry was “increased TRIM37 expression”. B1: in the experiment with RAD50, the binding result was “binds”.

B2: MRE11 (other, human, UniProt P49959 2-708, looked up)
chain: STADALDDENTFKILVATDIHLGFMEKDAVRGNDTFVTLDEILRLAQENEVDFILLGGDLFHENKPSRKTLHTCLELLRKYCMGDRPVQFEILSDQSVNFGFSKFPWVNYQDGNLNISIPVFSIHGNHDDPTGADALCALDILSCAGFVNHFGRSMSVEKIDISPVLLQKGSTKIALYGLGSIPDERLYRMFVNKKVTMLRPKEDENSWFNLFVIHQNRSKHGSTNFIPEQFLDDFIDLVIWGHEHECKIAPTKNEQQLFYISQPGSSVVTSLSPGEAVKKHVGLLRIKGRKMNMHKIPLHTVRQFFMEDIVLANHPDIFNPDNPKVTQAIQSFCLEKIEEMLENAERERLGNSHQPEKPLVRLRVDYSGGFEPFSVLRFSQKFVDRVANPKDIIHFFRHREQKEKTGEEINFGKLITKPSEGTTLRVEDLVKQYFQTAEKNVQLSLLTERGMGEAVQEFVDKEEKDAIEELVKYQLEKTQRFLKERHIDALEDKIDEEVRRFRETRQKNTNEEDDEVREAMTRARALRSQSEESASAFSADDLMSIDLAEQMANDSDDSISAATNKGRGRGRGRRGGRGQNSASRGGSQRGRADTGLETSTRSRNSKTAVSASRNMSIIDAFKSTRQQPSRNVTTKNYSEVIEVDESDVEEDIFPTTSKTDQRWSSTSSSKIMSQSQVSKGVDFESSEDDDDDPFMNTSSLRRNRR
notes: Only co-sedimentation with TRIM37 is reported
As to B2, the binding result in experiment [3] is “binds”.
